Measured values as given in ChEMBL document CHEMBL5346973 (J Med Chem, 2023).
Activity calls are given as the source filed them. The rule behind the calls is not given here. Where a SMILES comes first, the peptide text is derived from it.

Assays:
[1] = biological target: Nicotinic acetylcholine receptor alpha9/alpha10 (Rattus norvegicus, UniProt P43144+Q9JLB5); experiment: Antagonist activity at rat alpha9alpha10 nACh receptor expressed in Xenopus oocyte assessed as inhibition of acetylcholine-induced response at -70 mV holding potential by voltage-clamp based electrophysiological assay; assay type: cell-based
[2] = biological target: Nicotinic acetylcholine receptor alpha9/alpha10 (Rattus norvegicus) (UniProt P43144+Q9JLB5); experiment: Antagonist activity at rat alpha9alpha10 nACh receptor expressed in Xenopus oocyte assessed as inhibition of acetylcholine-induced response at -70 mV holding potential at 10 uM measured after 5 mins by voltage-clamp based electrophysiological assay; assay type: cell-based

Sequence of Nicotinic acetylcholine receptor alpha9/alpha10 (P43144 whole entry): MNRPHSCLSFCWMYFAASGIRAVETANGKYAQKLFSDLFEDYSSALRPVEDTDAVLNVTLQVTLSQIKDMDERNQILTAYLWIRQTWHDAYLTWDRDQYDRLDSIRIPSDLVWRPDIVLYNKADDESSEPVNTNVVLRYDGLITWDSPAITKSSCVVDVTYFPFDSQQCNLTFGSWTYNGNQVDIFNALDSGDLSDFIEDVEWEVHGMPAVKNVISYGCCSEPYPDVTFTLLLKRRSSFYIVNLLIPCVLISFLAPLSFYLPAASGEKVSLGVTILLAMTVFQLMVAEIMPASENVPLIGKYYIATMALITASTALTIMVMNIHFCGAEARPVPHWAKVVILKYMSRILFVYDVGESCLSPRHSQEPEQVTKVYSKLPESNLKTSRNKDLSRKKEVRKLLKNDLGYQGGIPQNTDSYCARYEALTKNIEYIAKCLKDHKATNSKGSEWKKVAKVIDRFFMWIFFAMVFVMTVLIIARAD
Sequence of Nicotinic acetylcholine receptor alpha9/alpha10 (Q9JLB5 whole entry): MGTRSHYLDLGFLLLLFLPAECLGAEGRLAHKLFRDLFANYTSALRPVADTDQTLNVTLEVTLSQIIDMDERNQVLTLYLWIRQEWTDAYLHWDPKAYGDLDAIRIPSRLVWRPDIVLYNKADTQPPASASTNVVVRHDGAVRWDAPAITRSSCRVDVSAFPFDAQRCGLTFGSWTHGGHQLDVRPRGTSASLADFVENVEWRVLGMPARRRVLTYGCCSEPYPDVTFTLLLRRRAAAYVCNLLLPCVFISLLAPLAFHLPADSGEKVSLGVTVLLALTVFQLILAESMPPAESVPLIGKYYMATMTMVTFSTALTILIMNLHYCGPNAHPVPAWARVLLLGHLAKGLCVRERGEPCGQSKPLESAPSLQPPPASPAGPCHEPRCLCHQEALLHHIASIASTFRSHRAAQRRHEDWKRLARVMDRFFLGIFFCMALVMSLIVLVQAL

SMILES	IC50 [1]	Activity [2]
CC[C@H](C)[C@@H]1NC(=O)[C@H](CCCNC(=N)N)NC(=O)[C@H](CCCNC(=N)N)NC(=O)[C@@H](NC(=O)[C@H](Cc2ccc(O)cc2)NC(=O)[C@H](CCCNC(=N)N)NC(=O)[C@H](CCCNC(=N)N)NC(=O)[C@H](CCCNC(=N)N)NC(=O)[C@H](CCCNC(=N)N)NC(=O)[C@H](CC(=O)O)NC(=O)[C@H](Cc2ccc(O)cc2)NC(=O)[C@@H]2CCCN2C(=O)[C@H](CO)NC(=O)[C@H](C)NC(=O)[C@@H]2CSSC[C@H](NC(=O)[C@@H](N)[C@@H](C)O)C(=O)N[C@@H](C)C(=O)N[C@@H](CO)C(=O)N[C@@H](CO)C(=O)N[C@@H](C)C(=O)N[C@@H](CCCNC(=N)N)C(=O)N[C@@H](Cc3ccc(O)cc3)C(=O)N2)CSSC[C@@H](C(=O)N[C@H](C(=O)O)C(C)C)NC(=O)[C@H](C)NC(=O)[C@H](CC(=O)O)NC(=O)[C@H]([C@@H](C)O)NC1=O (HELM PEPTIDE1{T.C.A.S.S.A.R.Y.C.A.S.P.Y.D.R.R.R.R.Y.C.R.R.I.T.D.A.C.V}$PEPTIDE1,PEPTIDE1,2:R3-9:R3|PEPTIDE1,PEPTIDE1,20:R3-27:R3$$$V2.0)	> 10 µM	inactive
CC[C@H](C)[C@@H]1NC(=O)[C@H](CCCNC(=N)N)NC(=O)[C@H](CCCNC(=N)N)NC(=O)[C@@H](NC(=O)[C@H](Cc2ccc(O)cc2)NC(=O)[C@H](C)NC(=O)[C@H](C)NC(=O)[C@H](C)NC(=O)[C@H](C)NC(=O)[C@H](CC(=O)O)NC(=O)[C@H](Cc2ccc(O)cc2)NC(=O)[C@@H]2CCCN2C(=O)[C@H](CO)NC(=O)[C@H](CCCNC(=N)N)NC(=O)[C@@H]2CSSC[C@H](NC(=O)[C@@H](N)[C@@H](C)O)C(=O)N[C@@H](CCCNC(=N)N)C(=O)N[C@@H](CO)C(=O)N[C@@H](CCCNC(=N)N)C(=O)NCC(=O)N[C@@H](CCCNC(=N)N)C(=O)N[C@@H](Cc3ccc(O)cc3)C(=O)N2)CSSC[C@@H](C(=O)N[C@H](C(=O)O)C(C)C)NC(=O)[C@H](C)NC(=O)[C@H](CC(=O)O)NC(=O)[C@H]([C@@H](C)O)NC1=O (HELM PEPTIDE1{T.C.R.S.R.G.R.Y.C.R.S.P.Y.D.A.A.A.A.Y.C.R.R.I.T.D.A.C.V}$PEPTIDE1,PEPTIDE1,2:R3-9:R3|PEPTIDE1,PEPTIDE1,20:R3-27:R3$$$V2.0)	> 10 µM	inactive
CC[C@H](C)[C@@H]1NC(=O)[C@H](C)NC(=O)[C@H](C)NC(=O)[C@@H](NC(=O)[C@H](Cc2ccc(O)cc2)NC(=O)[C@H](C)NC(=O)[C@H](C)NC(=O)[C@H](C)NC(=O)[C@H](C)NC(=O)[C@H](CC(=O)O)NC(=O)[C@H](Cc2ccc(O)cc2)NC(=O)[C@@H]2CCCN2C(=O)[C@H](CO)NC(=O)[C@H](C)NC(=O)[C@@H]2CSSC[C@H](NC(=O)[C@@H](N)[C@@H](C)O)C(=O)N[C@@H](C)C(=O)N[C@@H](CO)C(=O)N[C@@H](CO)C(=O)NCC(=O)N[C@@H](C)C(=O)N[C@@H](Cc3ccc(O)cc3)C(=O)N2)CSSC[C@@H](C(=O)N[C@H](C(=O)O)C(C)C)NC(=O)[C@H](C)NC(=O)[C@H](CC(=O)O)NC(=O)[C@H]([C@@H](C)O)NC1=O (HELM PEPTIDE1{T.C.A.S.S.G.A.Y.C.A.S.P.Y.D.A.A.A.A.Y.C.A.A.I.T.D.A.C.V}$PEPTIDE1,PEPTIDE1,2:R3-9:R3|PEPTIDE1,PEPTIDE1,20:R3-27:R3$$$V2.0)	> 10 µM	inactive
